# Calls of active or inactive are those of the source. The rule behind the calls is not given here.
# Assays:
# [1] = buffer, pH 7.4
# Description: Lipophilicity, log K of the compound in 50 mM PBS at pH 7.4-10 to 60% methanol mixture by HPLC method
# [2] = target: T1, 5-hydroxytryptamine receptor 1A (Homo sapiens, UniProt P08908); assay: biochemical
# T1 sequence (P08908 whole entry): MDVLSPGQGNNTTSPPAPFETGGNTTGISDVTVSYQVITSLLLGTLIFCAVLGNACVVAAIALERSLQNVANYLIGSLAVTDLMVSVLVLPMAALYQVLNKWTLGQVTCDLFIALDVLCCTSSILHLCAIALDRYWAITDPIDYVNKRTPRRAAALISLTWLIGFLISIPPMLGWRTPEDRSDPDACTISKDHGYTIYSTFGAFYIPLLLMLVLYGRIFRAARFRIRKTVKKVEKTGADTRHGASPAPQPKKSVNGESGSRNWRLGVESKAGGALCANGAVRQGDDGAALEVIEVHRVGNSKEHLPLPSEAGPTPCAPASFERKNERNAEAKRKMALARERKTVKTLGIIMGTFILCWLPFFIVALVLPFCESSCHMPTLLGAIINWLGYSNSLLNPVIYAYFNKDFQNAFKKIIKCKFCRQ
# Description: Displacement of [3H]8-OH-DPAT from human cloned 5-HT1A receptor expressed in CHO cells after 60 mins by liquid scintillation counting
# D(4) dopamine receptor [3] = target: T2, D(4) dopamine receptor (Homo sapiens, UniProt P21917); assay: biochemical
# T2 sequence (P21917 whole entry): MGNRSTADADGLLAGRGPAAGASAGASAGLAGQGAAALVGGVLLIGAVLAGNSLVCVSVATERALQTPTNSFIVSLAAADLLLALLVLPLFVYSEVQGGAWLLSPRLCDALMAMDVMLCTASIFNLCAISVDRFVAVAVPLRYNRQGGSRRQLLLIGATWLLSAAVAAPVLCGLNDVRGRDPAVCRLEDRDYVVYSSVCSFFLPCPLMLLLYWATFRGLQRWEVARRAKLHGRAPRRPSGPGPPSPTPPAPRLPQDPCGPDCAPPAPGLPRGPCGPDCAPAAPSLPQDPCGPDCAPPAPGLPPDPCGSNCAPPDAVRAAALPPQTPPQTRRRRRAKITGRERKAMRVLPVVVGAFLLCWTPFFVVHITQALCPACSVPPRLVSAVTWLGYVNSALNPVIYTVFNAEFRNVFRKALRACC
# Description: Displacement of [3H]-YM-09151-2 from human cloned D4 receptor expressed in Sf9 cells after 60 mins by liquid scintillation counting
# [4] = target: D(3) dopamine receptor (Homo sapiens) (UniProt P35462); assay: Binding affinity to dopamine D3 receptor at 10 uM by radioligand binding assay
# [5] = target: Alpha-2B adrenergic receptor (Homo sapiens) (UniProt P18089); assay: Binding affinity to adrenergic alpha2B receptor at 10 uM by radioligand binding assay
# [6] = target: Beta-3 adrenergic receptor (Homo sapiens) (UniProt P13945); assay: Binding affinity to adrenergic beta3 receptor at 10 uM by radioligand binding assay
# [7] = target: D(1B) dopamine receptor (Homo sapiens) (UniProt P21918); assay: Binding affinity to dopamine D5 receptor at 10 uM by radioligand binding assay
# [8] = target: Alpha-1B adrenergic receptor (Homo sapiens, UniProt P35368)
# Description: Binding affinity to adrenergic alpha1B receptor by radioligand binding assay
# [9] = target: Histamine H3 receptor (Homo sapiens) (UniProt Q9Y5N1); assay: Binding affinity to histamine H3 receptor at 10 uM by radioligand binding assay
# [10] = target: Alpha-1A adrenergic receptor (Homo sapiens, UniProt P35348); assay: Binding affinity to adrenergic alpha1A receptor by radioligand binding assay; details: read-out: Ki(app)
# [11] = target: T3, 5-hydroxytryptamine receptor 1A (Rattus norvegicus) (UniProt P19327); assay: Agonist activity of 5-HT1A receptor in Wistar rat dorsal raphe serotonergic neuron assessed as inhibition of firing at 1 nM to 1 uM by electrophysiological test; format: functional
# T3 sequence (whole entry): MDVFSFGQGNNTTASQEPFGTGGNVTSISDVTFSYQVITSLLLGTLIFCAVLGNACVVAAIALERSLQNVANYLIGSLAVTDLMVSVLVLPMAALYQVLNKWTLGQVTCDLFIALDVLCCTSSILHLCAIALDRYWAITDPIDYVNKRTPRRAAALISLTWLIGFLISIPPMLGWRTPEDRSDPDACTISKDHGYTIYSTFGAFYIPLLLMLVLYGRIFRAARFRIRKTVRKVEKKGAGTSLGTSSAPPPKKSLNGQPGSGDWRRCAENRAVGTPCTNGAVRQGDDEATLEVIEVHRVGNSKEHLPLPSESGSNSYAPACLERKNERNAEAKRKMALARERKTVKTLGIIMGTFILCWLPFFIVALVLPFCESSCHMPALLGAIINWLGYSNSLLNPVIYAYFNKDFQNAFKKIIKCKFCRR
# [12] = target: 5-hydroxytryptamine receptor 3A (Homo sapiens) (UniProt P46098); assay: Binding affinity to 5HT3 receptor at 10 uM by radioligand binding assay
# [13] = target: 5-hydroxytryptamine receptor 1D (Homo sapiens) (UniProt P28221); assay: Binding affinity to 5HT1D receptor at 10 uM by radioligand binding assay
# [14] = target: Sodium-dependent dopamine transporter (Homo sapiens) (UniProt Q01959); assay: Binding affinity to DAT at 10 uM by radioligand binding assay
# [15] = target: 5-hydroxytryptamine receptor 1E (Homo sapiens) (UniProt P28566); assay: Binding affinity to 5HT1E receptor at 10 uM by radioligand binding assay
# [16] = target: 5-hydroxytryptamine receptor 6 (Homo sapiens) (UniProt P50406); assay: Binding affinity to 5HT6 receptor at 10 uM by radioligand binding assay
# [17] = Binding affinity to GABAA receptor at 10 uM by radioligand binding assay
# [18] = target: Beta-2 adrenergic receptor (Homo sapiens) (UniProt P07550); assay: Binding affinity to adrenergic beta2 receptor at 10 uM by radioligand binding assay
# [19] = target: D(1A) dopamine receptor (Homo sapiens) (UniProt P21728); assay: Binding affinity to dopamine D1 receptor at 10 uM by radioligand binding assay
# [20] = target: Muscarinic acetylcholine receptor M1 (Homo sapiens) (UniProt P11229); assay: Binding affinity to muscarinic M1 receptor at 10 uM by radioligand binding assay
# [21] = Binding affinity to sigma 2 receptor at 10 uM by radioligand binding assay
# [22] = target: Alpha-2A adrenergic receptor (Homo sapiens) (UniProt P08913); assay: Binding affinity to adrenergic alpha2A receptor at 10 uM by radioligand binding assay
# [23] = target: Muscarinic acetylcholine receptor M2 (Homo sapiens) (UniProt P08172); assay: Binding affinity to muscarinic M2 receptor at 10 uM by radioligand binding assay
# [24] = Binding affinity to rat benzodiazepine binding site at 10 uM by radioligand binding assay
# [25] = target: 5-hydroxytryptamine receptor 2B (Homo sapiens, UniProt P41595); assay: Binding affinity to 5HT2B receptor by radioligand binding assay; details: read-out: Ki(app)
# D(4) dopamine receptor [26] = target: T2, D(4) dopamine receptor
# Description: Binding affinity to dopamine D4 receptor by radioligand binding assay
# [27] = target: 5-hydroxytryptamine receptor 2C (Homo sapiens) (UniProt P28335); assay: Binding affinity to 5HT2C receptor at 10 uM by radioligand binding assay
# [28] = target: 5-hydroxytryptamine receptor 5A (Homo sapiens) (UniProt P47898); assay: Binding affinity to 5HT5A receptor at 10 uM by radioligand binding assay
# [29] = target: D(2) dopamine receptor (Homo sapiens) (UniProt P14416); assay: Binding affinity to dopamine D2 receptor at 10 uM by radioligand binding assay
# [30] = target: Muscarinic acetylcholine receptor M3 (Homo sapiens) (UniProt P20309); assay: Binding affinity to muscarinic M3 receptor at 10 uM by radioligand binding assay
# [31] = target: 5-hydroxytryptamine receptor 2A (Homo sapiens, UniProt P28223); assay: Binding affinity to 5HT2A receptor by radioligand binding assay; details: read-out: Ki(app)
# [32] = target: T3, 5-hydroxytryptamine receptor 1A (Rattus norvegicus); assay: Antagonist activity of 5-HT1A receptor in Wistar rat dorsal raphe serotonergic neuron assessed as reversal of 8-OH-DPAT-induced decrease in firing rate at 100 nM by electrophysiological test; format: functional; set-up: scale not given: the % may be the effect or the level left
# [33] = target: Sigma non-opioid intracellular receptor 1 (Homo sapiens) (UniProt Q99720); assay: Binding affinity to sigma 1 receptor at 10 uM by radioligand binding assay
# [34] = target: T1, 5-hydroxytryptamine receptor 1A
# Description: Binding affinity to 5HT1A receptor by radioligand binding assay
# [35] = target: Muscarinic acetylcholine receptor M4 (Homo sapiens) (UniProt P08173); assay: Binding affinity to muscarinic M4 receptor at 10 uM by radioligand binding assay
# [36] = target: Muscarinic acetylcholine receptor M5 (Homo sapiens) (UniProt P08912); assay: Binding affinity to muscarinic M5 receptor at 10 uM by radioligand binding assay
# [37] = target: Beta-1 adrenergic receptor (Homo sapiens) (UniProt P08588); assay: Binding affinity to adrenergic beta1 receptor at 10 uM by radioligand binding assay
# [38] = target: 5-hydroxytryptamine receptor 1B (Homo sapiens) (UniProt P28222); assay: Binding affinity to 5HT1B receptor at 10 uM by radioligand binding assay
# [39] = target: 5-hydroxytryptamine receptor 7 (Homo sapiens, UniProt P34969)
# Description: Binding affinity to 5HT7 receptor by radioligand binding assay
# Sequence of Sigma non-opioid intracellular receptor 1 (Homo sapiens) (Q99720 whole entry): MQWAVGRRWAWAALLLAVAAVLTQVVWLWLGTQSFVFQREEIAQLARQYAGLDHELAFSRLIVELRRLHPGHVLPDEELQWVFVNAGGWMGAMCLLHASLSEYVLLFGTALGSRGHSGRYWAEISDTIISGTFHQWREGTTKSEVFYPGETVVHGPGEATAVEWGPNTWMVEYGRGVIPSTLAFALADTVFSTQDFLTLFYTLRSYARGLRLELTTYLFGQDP
# Sequence of Muscarinic acetylcholine receptor M5 (Homo sapiens) (P08912 whole entry): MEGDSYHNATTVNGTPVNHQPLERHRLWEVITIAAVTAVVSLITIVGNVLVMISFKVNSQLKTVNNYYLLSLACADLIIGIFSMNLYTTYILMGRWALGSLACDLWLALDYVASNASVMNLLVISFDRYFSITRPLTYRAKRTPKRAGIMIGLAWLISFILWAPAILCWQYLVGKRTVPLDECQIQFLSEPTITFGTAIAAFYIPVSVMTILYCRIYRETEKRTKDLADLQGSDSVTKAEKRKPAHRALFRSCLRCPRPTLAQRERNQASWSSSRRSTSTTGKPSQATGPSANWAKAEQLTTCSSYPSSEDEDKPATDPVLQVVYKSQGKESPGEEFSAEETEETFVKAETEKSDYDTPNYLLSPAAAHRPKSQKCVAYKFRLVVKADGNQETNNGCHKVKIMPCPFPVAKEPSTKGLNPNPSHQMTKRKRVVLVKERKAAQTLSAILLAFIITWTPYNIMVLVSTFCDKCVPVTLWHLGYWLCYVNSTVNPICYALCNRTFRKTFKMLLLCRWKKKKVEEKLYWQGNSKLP
# Sequence of 5-hydroxytryptamine receptor 6 (Homo sapiens) (P50406 whole entry): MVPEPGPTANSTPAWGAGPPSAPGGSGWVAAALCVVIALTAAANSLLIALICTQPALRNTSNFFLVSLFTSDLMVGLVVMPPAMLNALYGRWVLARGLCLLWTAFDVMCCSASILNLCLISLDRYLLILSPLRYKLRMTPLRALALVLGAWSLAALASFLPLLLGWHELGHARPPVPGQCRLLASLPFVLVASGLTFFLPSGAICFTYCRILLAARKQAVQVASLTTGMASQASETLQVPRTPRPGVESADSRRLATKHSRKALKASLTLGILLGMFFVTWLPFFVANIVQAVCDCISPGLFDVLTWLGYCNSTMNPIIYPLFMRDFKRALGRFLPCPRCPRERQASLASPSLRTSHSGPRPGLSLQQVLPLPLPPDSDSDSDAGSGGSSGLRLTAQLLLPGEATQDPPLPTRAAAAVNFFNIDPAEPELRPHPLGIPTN
# Sequence of Sodium-dependent dopamine transporter (Homo sapiens) (Q01959 whole entry): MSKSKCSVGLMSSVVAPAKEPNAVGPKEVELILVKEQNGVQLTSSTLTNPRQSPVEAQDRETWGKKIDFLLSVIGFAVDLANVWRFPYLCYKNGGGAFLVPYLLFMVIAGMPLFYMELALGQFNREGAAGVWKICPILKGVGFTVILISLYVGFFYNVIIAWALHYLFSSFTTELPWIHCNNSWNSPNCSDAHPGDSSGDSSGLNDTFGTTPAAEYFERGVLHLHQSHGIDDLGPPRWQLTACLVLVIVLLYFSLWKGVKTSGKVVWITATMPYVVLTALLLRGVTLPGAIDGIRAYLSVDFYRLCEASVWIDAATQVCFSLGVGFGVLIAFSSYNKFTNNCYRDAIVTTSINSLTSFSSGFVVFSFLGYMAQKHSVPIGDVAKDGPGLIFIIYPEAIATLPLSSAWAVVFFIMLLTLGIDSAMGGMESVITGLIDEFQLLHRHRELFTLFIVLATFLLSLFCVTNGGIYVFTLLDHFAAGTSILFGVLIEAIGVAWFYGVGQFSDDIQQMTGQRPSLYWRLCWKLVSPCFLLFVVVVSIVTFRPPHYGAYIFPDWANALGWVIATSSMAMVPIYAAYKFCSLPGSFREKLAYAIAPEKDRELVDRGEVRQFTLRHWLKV
# Sequence of Beta-3 adrenergic receptor (Homo sapiens) (P13945 whole entry, looked up): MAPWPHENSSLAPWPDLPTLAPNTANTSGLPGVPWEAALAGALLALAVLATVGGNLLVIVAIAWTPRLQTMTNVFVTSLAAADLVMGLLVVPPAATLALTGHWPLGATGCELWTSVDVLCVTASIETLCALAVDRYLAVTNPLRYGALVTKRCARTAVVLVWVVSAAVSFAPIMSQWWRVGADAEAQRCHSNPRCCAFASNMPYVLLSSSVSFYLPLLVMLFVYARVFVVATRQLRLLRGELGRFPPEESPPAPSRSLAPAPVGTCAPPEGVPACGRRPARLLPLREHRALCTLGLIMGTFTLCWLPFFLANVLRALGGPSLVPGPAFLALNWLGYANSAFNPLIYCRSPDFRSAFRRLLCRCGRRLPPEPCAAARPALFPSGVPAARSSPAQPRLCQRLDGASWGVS
# Sequence of 5-hydroxytryptamine receptor 2A (P28223 whole entry): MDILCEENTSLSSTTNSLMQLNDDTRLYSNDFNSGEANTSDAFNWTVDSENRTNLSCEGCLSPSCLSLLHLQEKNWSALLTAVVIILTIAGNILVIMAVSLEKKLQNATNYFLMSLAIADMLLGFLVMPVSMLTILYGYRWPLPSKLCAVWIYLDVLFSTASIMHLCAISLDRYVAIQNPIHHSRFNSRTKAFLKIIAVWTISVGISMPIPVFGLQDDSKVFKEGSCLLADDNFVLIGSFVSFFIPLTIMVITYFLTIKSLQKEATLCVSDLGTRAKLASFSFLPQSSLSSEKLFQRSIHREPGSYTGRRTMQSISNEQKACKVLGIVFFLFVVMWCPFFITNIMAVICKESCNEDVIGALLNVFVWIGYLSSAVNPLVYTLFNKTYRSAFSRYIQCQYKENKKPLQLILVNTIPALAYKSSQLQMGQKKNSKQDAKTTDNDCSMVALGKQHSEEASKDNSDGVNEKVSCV
# Sequence of 5-hydroxytryptamine receptor 5A (Homo sapiens) (P47898 whole entry): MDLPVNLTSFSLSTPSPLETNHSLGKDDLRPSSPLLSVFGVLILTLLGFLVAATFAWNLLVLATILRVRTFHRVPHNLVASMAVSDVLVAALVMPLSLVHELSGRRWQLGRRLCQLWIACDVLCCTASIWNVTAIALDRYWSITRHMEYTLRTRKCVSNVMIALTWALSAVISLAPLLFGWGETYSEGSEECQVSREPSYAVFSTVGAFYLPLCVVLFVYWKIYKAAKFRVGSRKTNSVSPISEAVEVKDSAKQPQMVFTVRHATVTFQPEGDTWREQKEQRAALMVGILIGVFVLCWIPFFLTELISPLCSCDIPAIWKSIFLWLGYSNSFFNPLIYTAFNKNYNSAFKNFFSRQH
# Sequence of 5-hydroxytryptamine receptor 1B (Homo sapiens) (P28222 whole entry): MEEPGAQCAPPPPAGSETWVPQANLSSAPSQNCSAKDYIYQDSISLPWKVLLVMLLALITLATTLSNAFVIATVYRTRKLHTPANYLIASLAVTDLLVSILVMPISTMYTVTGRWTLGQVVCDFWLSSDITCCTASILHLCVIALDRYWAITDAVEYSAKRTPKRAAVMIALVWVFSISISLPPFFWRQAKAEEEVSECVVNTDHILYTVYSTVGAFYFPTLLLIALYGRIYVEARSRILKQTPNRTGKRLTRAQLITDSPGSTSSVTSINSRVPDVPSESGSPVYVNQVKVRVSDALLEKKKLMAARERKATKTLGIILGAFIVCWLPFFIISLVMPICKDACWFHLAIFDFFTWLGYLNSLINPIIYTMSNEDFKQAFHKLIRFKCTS
# Sequence of Beta-1 adrenergic receptor (Homo sapiens) (P08588 whole entry, looked up): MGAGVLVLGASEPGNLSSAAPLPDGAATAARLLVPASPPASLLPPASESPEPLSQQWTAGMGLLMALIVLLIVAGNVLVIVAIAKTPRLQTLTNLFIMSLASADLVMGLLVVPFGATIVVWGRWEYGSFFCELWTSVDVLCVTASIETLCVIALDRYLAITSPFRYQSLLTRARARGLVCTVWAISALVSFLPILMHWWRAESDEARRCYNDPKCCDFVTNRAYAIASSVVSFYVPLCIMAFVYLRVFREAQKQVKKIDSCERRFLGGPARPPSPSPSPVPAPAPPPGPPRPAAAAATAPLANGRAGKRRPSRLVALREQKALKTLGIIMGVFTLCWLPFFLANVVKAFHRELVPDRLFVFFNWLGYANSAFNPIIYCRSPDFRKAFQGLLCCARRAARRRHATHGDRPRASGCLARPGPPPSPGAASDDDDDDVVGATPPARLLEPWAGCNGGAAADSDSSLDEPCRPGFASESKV
# Sequence of 5-hydroxytryptamine receptor 1E (Homo sapiens) (P28566 whole entry): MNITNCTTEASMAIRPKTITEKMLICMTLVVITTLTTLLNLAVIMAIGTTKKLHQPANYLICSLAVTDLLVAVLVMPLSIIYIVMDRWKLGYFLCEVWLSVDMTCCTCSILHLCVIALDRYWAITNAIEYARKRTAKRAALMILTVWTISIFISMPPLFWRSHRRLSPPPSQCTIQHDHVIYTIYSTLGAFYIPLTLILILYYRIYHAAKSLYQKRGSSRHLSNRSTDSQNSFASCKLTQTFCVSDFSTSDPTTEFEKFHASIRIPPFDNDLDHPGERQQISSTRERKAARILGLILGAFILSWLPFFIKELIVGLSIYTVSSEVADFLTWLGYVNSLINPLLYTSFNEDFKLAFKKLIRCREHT
# Sequence of 5-hydroxytryptamine receptor 2B (P41595 whole entry): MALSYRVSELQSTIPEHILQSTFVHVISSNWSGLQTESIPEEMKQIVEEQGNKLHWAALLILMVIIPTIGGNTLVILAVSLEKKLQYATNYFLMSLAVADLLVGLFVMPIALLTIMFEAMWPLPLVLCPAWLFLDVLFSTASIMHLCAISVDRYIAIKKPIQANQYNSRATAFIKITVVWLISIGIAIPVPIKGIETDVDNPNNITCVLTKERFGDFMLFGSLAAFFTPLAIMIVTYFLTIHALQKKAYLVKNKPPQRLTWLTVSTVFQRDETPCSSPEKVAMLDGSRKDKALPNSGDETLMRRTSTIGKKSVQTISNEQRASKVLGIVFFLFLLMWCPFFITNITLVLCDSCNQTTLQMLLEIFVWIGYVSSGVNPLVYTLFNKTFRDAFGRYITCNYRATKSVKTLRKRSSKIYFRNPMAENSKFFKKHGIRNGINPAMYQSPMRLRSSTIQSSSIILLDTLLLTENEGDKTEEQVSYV
structure (smiles),measurement,setting,value
O=C(c1cnc2ccccc2n1)N(CCN1CC=C(c2ccccc2)CC1)c1ccccn1,log K,[1],3.33
same,Ki,[2],8.27 nM
same,Ki,D(4) dopamine receptor [3],35 nM
O=C(c1cccc2ccccc12)N(CCN1CCN(c2ccccc2)CC1)c1ccccn1,log K,[1],3.27
same,Ki,[2],35.8 nM
same,Ki,D(4) dopamine receptor [3],550 nM
O=C(c1cnc2ccccc2n1)N(CCN1CCN(c2ccccc2)CC1)c1ccccn1,log K,[1],3.06
same,Ki,[2],36.2 nM
same,Ki,D(4) dopamine receptor [3],56.8 nM
COc1ccccc1N1CCN(CCN(C(=O)c2ccc3ccccc3c2)c2ccccn2)CC1,log K,[1],3.57
same,Ki,[2],1.61 nM
same,Ki,D(4) dopamine receptor [3],184 nM
COc1ccccc1N1CCN(CCN(C(=O)c2cnc3ccccc3n2)c2ccccn2)CC1,log K,[1],2.61
same,Ki,[2],2.48 nM
same,Ki,D(4) dopamine receptor [3],15 nM
O=C(c1ccc2ccccc2c1)N(CCN1CC=C(c2ccccc2)CC1)c1ccccn1,log K,[1],4.36
same,Ki,[2],8.36 nM
same,Ki,D(4) dopamine receptor [3],291 nM
O=C(c1ccc2ccccc2c1)N(CCN1CCN(c2ccccc2)CC1)c1ccccn1,log K,[1],3.48
same,Ki,[2],16.3 nM
same,Ki,D(4) dopamine receptor [3],807 nM
O=C(C1CCCCC1)N(CCN1CC=C(c2ccccc2)CC1)c1ccccn1,inhibition,[4],> 50%
same,inhibition,[5],< 50%
same,inhibition,[6],< 50%
same,inhibition,[7],< 50%
same,Ki,[8],296 nM
same,inhibition,[9],< 50%
same,Ki,[10],39 nM
same,inhibition,[11],inactive
same,inhibition,[12],< 50%
same,inhibition,[13],< 50%
same,inhibition,[14],< 50%
same,inhibition,[15],< 50%
same,inhibition,[16],< 50%
same,inhibition,[17],< 50%
same,inhibition,[18],< 50%
same,inhibition,[19],< 50%
same,log K,[1],3.84
same,inhibition,[20],< 50%
same,inhibition,[21],> 50%
same,inhibition,[22],< 50%
same,inhibition,[23],< 50%
same,inhibition,[24],< 50%
same,Ki,[2],0.51 nM
same,Ki,[25],105 nM
same,Ki,D(4) dopamine receptor [26],55 nM
same,Ki,D(4) dopamine receptor [3],385 nM
same,inhibition,[27],< 50%
same,inhibition,[28],< 50%
same,inhibition,[29],> 50%
same,inhibition,[30],< 50%
same,Ki,[31],54 nM
same,Activity,[32],44%
same,inhibition,[33],> 50%
same,Ki,[34],0.69 nM
same,inhibition,[35],< 50%
same,inhibition,[36],< 50%
same,inhibition,[37],< 50%
same,inhibition,[38],< 50%
same,Ki,[39],60 nM
O=C(C1CCCCC1)N(CCN1CCN(c2ccccc2)CC1)c1ccccn1,inhibition,[4],> 50%
same,inhibition,[5],< 50%
same,inhibition,[6],< 50%
same,inhibition,[7],< 50%
same,Ki,[8],1050 nM
same,inhibition,[9],< 50%
same,Ki,[10],584 nM
same,inhibition,[11],inactive
same,inhibition,[12],< 50%
same,inhibition,[13],< 50%
same,inhibition,[14],< 50%
same,inhibition,[15],< 50%
same,inhibition,[16],< 50%
same,inhibition,[17],< 50%
same,inhibition,[18],< 50%
same,inhibition,[19],< 50%
same,log K,[1],2.68
same,inhibition,[20],< 50%
same,inhibition,[21],> 50%
same,inhibition,[22],< 50%
same,inhibition,[23],< 50%
same,inhibition,[24],< 50%
same,Ki,[2],1.21 nM
same,Ki,[25],327 nM
same,Ki,D(4) dopamine receptor [26],246 nM
same,Ki,D(4) dopamine receptor [3],946 nM
same,inhibition,[27],< 50%
same,inhibition,[28],< 50%
same,inhibition,[29],> 50%
same,inhibition,[30],< 50%
same,Ki,[31],180 nM
same,Activity,[32],44%
same,inhibition,[33],> 50%
same,Ki,[34],1.85 nM
same,inhibition,[35],< 50%
same,inhibition,[36],< 50%
same,inhibition,[37],< 50%
same,inhibition,[38],< 50%
same,Ki,[39],198 nM
O=C(c1cccc2ccccc12)N(CCN1CC=C(c2ccccc2)CC1)c1ccccn1,log K,[1],4.07
same,Ki,[2],14 nM
same,Ki,D(4) dopamine receptor [3],252 nM
COc1ccccc1N1CCN(CCN(C(=O)c2cccc3ccccc23)c2ccccn2)CC1,log K,[1],3.26
same,Ki,[2],1.89 nM
same,Ki,D(4) dopamine receptor [3],69 nM
